Reference: patent US20150038493A1, “COMPOUNDS THAT TRAP ALPHA-OXOALDEHYDES AND ALPHA-BETA-UNSATURATED ALDEHYDES, META-COMPOUNDS CONTAINING SUCH COMPOUNDS, AND USE OF SAID COMPOUNDS IN TREATING ILLNESSES RELATED TO THE ACCUMULATION OF AGES AND ALES” (PHARMAMENS, priority 2011, published 2015)
Peptide text beside a SMILES is read from it.

Tests used:
[1] = tested on: advanced glycation end-products (AGEs) on human albumin; experiment: Inhibition of AGE formation: fluorescence of human albumin incubated with glucose; format: biochemical; conditions: human albumin 50 g/l, glucose 500 mM, compound 50 mM, 37° C., 20 days; ex 370 nm, em 440 nm
Description: Human albumin at physiological concentration (50 g/l) is incubated with glucose (500 mM in phosphate buffer at 100 mM, pH=7.4) at 37° C. for 20 days in the presence or absence of the compounds tested (50 mM). A measurement of the fluorescence (reading at 440 nm after excitation at 370 nm) is then carried out on each sample. The results are expressed in the form of a fluorescence read (sample)/maximum fluorescence observed (control without scavenger compound, D=20) ratio.
A solution of human albumin (50 g/l) and of glucose (500 mM) in phosphate buffer (100 mM, pH=7.4) is prepared. 1000 μl of the previous solution are then immediately charged to tubes, each containing one of the compounds tested (50 μmol). The resulting solutions are homogenized (vortex for 10 sec) and then immediately filtered through a sterile 0.2 μm membrane into sterile capped Eppendorf tubes (1.5 ml), under a vertical laminar flow filtering hood. The tubes are then stoppered and placed at 37° C., in the dark, for 20 days. After a return to ambient temperature (22° C.), a measurement of the fluorescence (λex=370 nm, λem=440 nm) is carried out on 200 μl of each sample.

[2] = Scavenging of glyoxal (GO) generated from glucose incubated at 37° C., LC-MS assay after 2,3-diaminonaphthalene derivatization; conditions: for GO scavenging activity (in words): compound 100 μM added on 7th day, FIG. 1; for level of GO observed after 14 days: glucose 50 mM, phosphate buffer pH 7.4, 37° C., compound added on 7th day, final concentration 100 μM
Description: (§1) An aqueous solution of glucose (50 mM in phosphate buffer at 100 mM, pH=7.4) is incubated at 37° C. for 14 days in order to “naturally” generate glyoxal (GO) and methylglyoxal (MGO). The compound tested is introduced on the 7th day (final concentration=100 μM). The GO and MGO concentrations of the medium are measured at regular intervals by LC-MS assaying, after derivatization with 2,3-diaminonaphthalene, in order to determine the effect of the compound tested.
(§2) The results of the assays are compared with those obtained without the addition of scavenger compound (control) and with those obtained during the addition of a reference compound (aminoguanidine, D-Dap, D-Dap-L-Leu, 8-hydroxyquinoline).
(§3) A solution S0 of glucose (50 mM) in phosphate buffer (100 mM, pH=7.4) is prepared and then filtered through a sterile 0.2 μm membrane into a sterile Falcon tube, under a vertical laminar flow filtering hood. 1000 μl of solution S0 are then charged to several sterile capped Eppendorf tubes (1.5 ml) which are then stoppered and placed at 37° C., in the dark, for 14 days (“control” series). The rest of the solution S0 is incubated in the same way, in a Falcon tube. The Eppendorf tubes are then removed, one by one, at regular intervals (approximately 24 h) and are immediately placed at −20° C. while awaiting analysis.
(§4) On D=7, an aqueous solution S1 of the compound tested (5 mM) is prepared and then filtered through a sterile 0.2 μm membrane into a sterile Falcon tube, under a vertical laminar flow filtering hood. A mixture of the solution S1 (140 μl) and of the remaining solution S0, incubated for 7 days at 37° C. (6860 μl), is then prepared before being divided up between 6 sterile Eppendorf tubes (6×1000 μl) which are subsequently stoppered and placed at 37° C., in the dark, for 7 days (“test” series). These tubes are removed, one by one, at regular intervals (approximately 24 h) and are immediately placed at −20° C. while awaiting analysis. On D=14, the tubes of the “control” and “test” series are thawed and are each treated with 100 μl of a solution of 2,3-diaminonaphthalene (10 mM) in order to derivatize the GO and the MGO, respectively in the form of GO-DAN and of MGO-DAN. After homogenization (vortex for 10 sec), the tubes are left to stand for 24 h, at 20° C., in the dark. The GO-DAN and the MGO-DAN are then assayed in each sample by LC-MS (Shimadzu LCMS-2020), by external calibration carried out with standard solutions of GO-DAN and of MGO-DAN, according to the following conditions. Column: Shim-pack XR-ODS II (75×2 mm, 80 Å), temperature: 40° C., eluent: water/methanol (50/50)+0.1% of formic acid, flow rate: 300 μl/min, analysis time: 10 min, injection volume: 1 μl, detection: ESI+ in SIM mode (m/z=181.1 and 195.1) with the following parameters: interface voltage=4.5 kV, DL voltage=10 V, Q-array DC=0 V, Q-array RF=40 V (for m/z=181.1) or 10 V (for m/z=195.1). The GO-DAN and MGO-DAN compounds are respectively detected at the retention times of 3.9 min and 5.4 min.

[3] = Scavenging of methylglyoxal (MGO) generated from glucose incubated at 37° C., LC-MS assay after 2,3-diaminonaphthalene derivatization; conditions: for MGO scavenging activity (in words): compound 100 μM added on 7th day, FIG. 2; for level of MGO observed after 14 days: glucose 50 mM, phosphate buffer pH 7.4, 37° C., compound added on 7th day, final concentration 100 μM
Description: as §1, §2, §3, §4

| Structure (SMILES) | relative fluorescence (fluorescence read/maximum fluorescence of control D=20) [1] | GO scavenging activity (in words) [2] | MGO scavenging activity (in words) [3] | level of GO observed after 14 days [2] | level of MGO observed after 14 days [3] |
| --- | --- | --- | --- | --- | --- |
| Oc1cccc2cccnc12 [8-hydroxyquinoline] | 40% |  |  |  |  |
| CC1CCN(C(=O)[C@H](N)CN)CC1 [Compound 4c] |  | activity close to or even greater than that of the reference compound, aminoguanidine | activity close to or even greater than that of the reference compound, aminoguanidine |  |  |
| NC[C@@H](N)C(=O)N1CCOCC1 [Compound 4e] | 19% |  |  |  |  |
| NC[C@@H](N)C(=O)N1CCN(C2CCCCC2)CC1 [Compound 4h, (2R)-2,3-diamino-1-(4-cyclohexylpiperazin-1-yl)propan-1-one] |  | activity close to or even greater than that of the reference compound, aminoguanidine | activity close to or even greater than that of the reference compound, aminoguanidine |  |  |
| NC[C@@H](N)C(=O)N1CCN(C(=O)[C@H](N)CN)CC1 [Compound 6a, (2R,2′R)-1,1′-(piperazine-1,4-diyl)bis(2,3-diaminopropan-1-one)] |  | activity close to or even greater than that of the reference compound, aminoguanidine | activity close to or even greater than that of the reference compound, aminoguanidine |  |  |
| NC[C@@H](N)C(=O)N1CCN(Cc2ccc(O)c3ncccc23)CC1 [Compound 11, (2R)-2,3-diamino-1-{4-[(8-hydroxyquinolin-5-yl)methyl]piperazin-1-yl}propan-1-one] | 3% | good capacity for scavenging of GO and of MGO | good capacity for scavenging of GO and of MGO | 3.0 µM | 0.19 µM |
| NC[C@@H](N)C(=O)N1CCN(C(=O)Cc2ccc(O)c3ncccc23)CC1 [Compound 13, (2R)-2,3-diamino-1-{4-[2-(8-hydroxyquinolin-5-yl)acetyl]piperazin-1-yl}propan-1-one] | 2% | good capacity for scavenging of GO and of MGO | good capacity for scavenging of GO and of MGO | 2.6 µM | 0.12 µM |
| C[C@@H](N)C(=O)N1CCOCC1 [D-Ala-Morpholine] | 78% |  |  |  |  |
| CC(C)C[C@H](NC(=O)[C@H](N)CN)C(=O)O [D-Dap-L-Leu] (HELM PEPTIDE1{[NC[C@@H](N)C(=O)[*:2]].L}$$$$V2.0) | 43% |  |  |  |  |
| N=C(N)NN [aminoguanidine, reference compound] | 3% |  |  | 68.4 µM | 1.20 µM |
| NCCC(=O)N[C@@H](Cc1cnc[nH]1)C(=O)O [carnosine] | 60% |  |  |  |  |
